# Laboratory results taken from patent publication US20130289056A1, “METHODS OF ADMINISTERING AN EGFR INHIBITOR” (Boehringer Ingelheim International GmbH, priority 2010, published 2013).
# Columns and labels:
# [1] = system: CaCo-2 cell layers; assay: Passive permeability through CaCo-2 cell layers; type: in vitro ADME
# From the text: (§1) Passive Permeability through CaCo-2 Cell Layers and P-gp Transport Profiling: […]
# [2] = target: P-glycoprotein (MDR1, ABCB1) (Homo sapiens, UniProt P08183); assay: P-gp transport profiling (substrate); type: in vitro ADME; conditions: human, Caco-2 cell layers; estimated
# From the text: as §1
# [3] = target: T1, P-glycoprotein (a.k.a. MDR1, ABCB1) (Homo sapiens, UniProt P08183); assay: P-gp transport profiling (substrate); type: in vitro ADME; conditions: in vitro
# From the text: as §1
# [4] = target: T1, P-glycoprotein (a.k.a. MDR1, ABCB1); assay: Inhibition of P-gp by BIBW 2992; type: in vitro ADME; conditions: mean of two independent experiments; read-out: estimated Ki as inhibitor of P-gp
# From the text: as §1
# [5] = target: T2, CYP3A4 (Homo sapiens, UniProt P08684); assay: CYP3A4-catalysed metabolism of BIBW 2992 in vivo (previous studies)
# T2 construct: host or cells: healthy volunteers (in vivo)
# [6] = in vivo; cited from earlier work
# [7] = Phase I two-way crossover trial: effect of ritonavir on pharmacokinetics of BIBW 2992
# T2 sequence (P08684 whole entry): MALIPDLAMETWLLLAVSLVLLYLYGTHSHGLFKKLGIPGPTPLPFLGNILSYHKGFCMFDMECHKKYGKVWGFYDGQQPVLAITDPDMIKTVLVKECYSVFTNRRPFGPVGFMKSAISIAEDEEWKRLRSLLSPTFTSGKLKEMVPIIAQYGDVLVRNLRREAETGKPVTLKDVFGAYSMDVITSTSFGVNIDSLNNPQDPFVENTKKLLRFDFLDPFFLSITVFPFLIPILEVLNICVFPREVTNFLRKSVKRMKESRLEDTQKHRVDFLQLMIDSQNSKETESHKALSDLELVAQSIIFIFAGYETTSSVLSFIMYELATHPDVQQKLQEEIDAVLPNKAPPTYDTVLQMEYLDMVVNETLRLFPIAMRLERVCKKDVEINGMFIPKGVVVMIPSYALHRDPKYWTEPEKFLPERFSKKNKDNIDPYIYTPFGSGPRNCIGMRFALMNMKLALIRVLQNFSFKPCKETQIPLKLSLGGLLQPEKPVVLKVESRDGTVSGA
# T1 sequence (P08183 whole entry): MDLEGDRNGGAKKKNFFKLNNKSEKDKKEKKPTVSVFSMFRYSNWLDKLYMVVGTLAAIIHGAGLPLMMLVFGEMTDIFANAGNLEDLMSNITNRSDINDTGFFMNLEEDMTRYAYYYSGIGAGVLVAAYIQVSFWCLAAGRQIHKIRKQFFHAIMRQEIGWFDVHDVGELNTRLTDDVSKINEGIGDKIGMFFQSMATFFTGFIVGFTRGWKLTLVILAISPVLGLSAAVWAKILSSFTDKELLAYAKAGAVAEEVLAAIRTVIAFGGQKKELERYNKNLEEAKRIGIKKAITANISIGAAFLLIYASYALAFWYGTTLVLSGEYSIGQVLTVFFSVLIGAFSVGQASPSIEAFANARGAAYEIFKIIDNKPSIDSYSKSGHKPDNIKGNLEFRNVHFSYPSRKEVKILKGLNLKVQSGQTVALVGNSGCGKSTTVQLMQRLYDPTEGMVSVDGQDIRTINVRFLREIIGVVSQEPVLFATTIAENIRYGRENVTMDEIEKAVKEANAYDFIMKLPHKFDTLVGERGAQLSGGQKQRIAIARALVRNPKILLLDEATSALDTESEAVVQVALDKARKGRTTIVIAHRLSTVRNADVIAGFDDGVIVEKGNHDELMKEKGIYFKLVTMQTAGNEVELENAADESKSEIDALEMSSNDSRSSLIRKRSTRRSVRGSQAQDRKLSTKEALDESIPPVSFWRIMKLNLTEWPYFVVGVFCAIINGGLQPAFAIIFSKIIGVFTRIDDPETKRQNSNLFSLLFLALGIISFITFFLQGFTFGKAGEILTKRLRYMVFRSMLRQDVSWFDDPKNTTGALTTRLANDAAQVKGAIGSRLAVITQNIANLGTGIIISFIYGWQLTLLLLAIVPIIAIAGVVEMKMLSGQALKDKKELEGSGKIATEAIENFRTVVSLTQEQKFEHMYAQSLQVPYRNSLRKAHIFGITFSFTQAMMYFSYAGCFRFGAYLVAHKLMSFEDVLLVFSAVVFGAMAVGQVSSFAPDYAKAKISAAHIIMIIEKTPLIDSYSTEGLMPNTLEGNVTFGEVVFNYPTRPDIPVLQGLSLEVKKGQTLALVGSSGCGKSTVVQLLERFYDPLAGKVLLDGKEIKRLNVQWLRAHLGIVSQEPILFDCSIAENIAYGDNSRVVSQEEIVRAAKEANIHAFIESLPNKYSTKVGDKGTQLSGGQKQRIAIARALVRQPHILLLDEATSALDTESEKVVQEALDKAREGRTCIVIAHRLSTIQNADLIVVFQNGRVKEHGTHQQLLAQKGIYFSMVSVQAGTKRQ
# P-glycoprotein (MDR1, ABCB1), sequence (P08183 whole entry): as above
smiles,measurement,setting,value
"CN(C)C/C=C/C(=O)Nc1cc2c(Nc3ccc(F)c(Cl)c3)ncnc2cc1O[C@H]1CCOC1.O=C(O)/C=C\C(=O)O.O=C(O)/C=C\C(=O)O [BIBW 2992, 4-[(3-chloro-4-fluorophenyl)amino]-6-{[4-(N,N-dimethylamino)-1-oxo-2-buten-1-yl]amino}-7-((S)-tetrahydrofuran-3-yloxy)-quinazoline]",passive permeability,[1],high
same,Km,[2],10 to 30 µM
same,P-gp substrate status,[3],substrate of P-gp
same,Ki,[4],3.4 µM
same,CYP3A4-dependent N-demethylation,[5]; healthy volunteers,too low to be quantitatively detected
same,role of CYP3A4 enzyme-catalysed metabolic reactions for metabolism,[5]; in vivo,subordinate role
same,dose dependence of exposure,[6],more than dose-proportional increase in exposure
same,AUC0-∞ increase compared with BIBW 2992 given alone,"[7]; BIBW 2992 20 mg oral with ritonavir 200 mg twice daily, healthy male volunteers, 90% CI 133.7%, 162.9%",47.6%
same,AUC0-tz increase compared with BIBW 2992 given alone,"[7]; BIBW 2992 20 mg oral with ritonavir 200 mg twice daily, healthy male volunteers, 90% CI 134.5%, 165.1%",49.0%
same,Tmax,"[7]; male, human, in vivo, oral, 20 mg",4 h
same,"terminal half-life, effect of ritonavir cotreatment",[7]; with ritonavir 200 mg bid vs alone,unchanged
